Measurements reported in patent US20050170015A1 (priority 2000, published 2005).
Where two headings read alike, the source gives them in different places.

What was measured:
[1] = tested on: RIF-1 murine fibrosarcoma; test: RIF-1 tumor growth delay, thiocolchicine alone and with cisplatin, camptothecin or amonafide (Example 6); type: in vivo, C3H mice; conditions: Ex# E047
Protocol: Cisplatin for Injection, USP, was obtained as the commercial product from Bristol Laboratories (Platinol®, Lot No. K1F26A). Camptothecin was obtained from Boehinger-Ingelheim Lot 142088. Amonafide dihydrochloride was prepared in house, in a solution of 20 mg/ml. 0.9% Sodium Chloride for Injection, USP (saline) was manufactured by Abbott Laboratories (Lot No. 55-199-DK). Sterile Water for Injection, USP (WFI) was manufactured by Lyphomed, Inc. (Lot No. 390849). DMSO was obtained from Sigma (St. Louis, Mo.). DMF (dimethylformamide) was obtained from Sigma (St. Louis, Mo.). PEG400 was obtained from Sigma (St. Louis, Mo.).
For preparation of cisplatin formulation, the contents of a 10-mg vial of lyophilized CDDP (Cisplatin for Injection) was resuspended with 10 mL WFI to produce a 1 mg/mL CDDP suspension.
Camptothecin was prepared in a solution of DMSO at 0.75 mg/ml.
This was further diluted using saline to […].
Amonafide was diluted to 15 mg/ml with saline.
Food and water were available ad libitum.
Tumors: The RIF-1 murine fibrosarcoma cell line was maintained in in vitro culture (Wayrnouth medium supplemented with 20% fetal bovine serum) at 37° C. in a humidified 5% CO2 incubator. Log-phase RIF-1 cells were trypsinized and harvested from cell culture flasks to yield a concentration of 4×10^6 cells/mL, then injected intradermally in a volume of 50 μL (equivalent to 2×10^5 cells per injection) into both flanks of each mouse. Nine days later, when tumors reached approximately 100 mm^3 in size, the animals were randomized to different treatment groups.
Evaluation of Tumor Growth Delay: Tumors were measured three times weekly for up to 22 days with Vernier calipers. Tumor volume (cubic millimeters, mm^3) was calculated according to the formula: [formula] in which D1-3 are perpendicular diameters measured in millimeters (mm). Tumor volume quadrupling time (TVQT), defined as the time required for a tumor to grow to four times (4×) its initial volume (at the time of treatment), was used as a study endpoint.
The TVQT was determined for each treatment group and expressed in days as the mean±standard error (SE).

[2] = tested on: murine fibrosarcomas (RIF-1 cells)
Description: In each Example, the tumors were followed until they reached a size of four times their day zero treatment volume (TVQT), or up to 30 days after treatment, whichever came first. The data is expressed as the “tumor volume quadrupling time” (TVQT) mean and as the “delay.” Mean TVQT is the mean days required for individual tumors to grow to four times the tumor volume at the initial treatment day. […] The data is also expressed as the ratio of the tumor volume quadrupling time of the treated tumor over the untreated control group (TVQT/CTVQT). Increasing values of this ratio indicate increased antitumor response.

[3] = tested on: murine fibrosarcomas (RIF-1 cells); type: in vivo, C3H mice
Protocol: (§1) For the examples below, transplantable experimental murine fibrosarcomas (2×10^5 RIF-1 cells) were grown intradermally in the flank s of 3 month old female C3H mice (Charles River, Holister, Calif.). When the tumors reached a volume of approximately 100 mm^3, the mice were randomly assigned to each experimental group (4 mice per group).
(§2) Colchicine was obtained from Sigma-Aldrich (St. Louis, Mo.) and was made to the appropriate concentration in water for injection. After the treatments described below, the growth of the tumors was monitored three times per week by caliper measurements of three perpendicular diameters of the tumor. The tumor volume was calculated from the formula: V=π/6×D1×D2×D3, where D1-3 are the diameter measurements in mm.
(§3) In each Example, the tumors were followed until they reached a size of four times their day zero treatment volume (TVQT), or up to 30 days after treatment, whichever came first. The data is expressed as the “tumor volume quadrupling time” (TVQT) mean and as the “delay.” Mean TVQT is the mean days required for individual tumors to grow to four times the tumor volume at the initial treatment day. The “delay” is the median of days required for a tumor to grow to four times the mean size of the treated group, minus the median of days required to grow to four times the mean size of the control group. The data is also expressed as the ratio of the tumor volume quadrupling time of the treated tumor over the untreated control group (TVQT/CTVQT). Increasing values of this ratio indicate increased antitumor response.
Cisplatin (David Bull Laboratories—Mulgrave, Australia, lot. 5201844x) was made to the appropriate concentration in water for injection. Colchicine was given orally in a volume of 100 μl. Cisplatin was injected systemically (i.e., intraperitoneally, i.p.), in a volume of 100 μl. For the treatment of group 3, colchicine was given orally immediately prior to the intraperitoneal injection of cisplatin. The experimental compositions were prepared as described in Table 7.

[4] = tested on: murine fibrosarcomas (RIF-1 cells); test: RIF-1 tumor growth delay, single-dose colchicine with camptothecin (Example 2A); type: in vivo, C3H mice
Protocol: as §1, §2, §3
A. Effect of Single Doses of Colchicine Administered Concurrently with Camptothecin Camptothecin (Boehringer Ingelheim-Lot 71012) was made to the appropriate concentration in DMSO. Colchicine was given orally in a volume of 100 μl. Camptothecin was injected systemically (i.e., intraperitoneally, i.p.), in a volume of 100 μl. For the treatment of group 3, colchicine was given orally immediately prior to the intraperitoneal injection of camptothecin. The experimental compositions were prepared as described in Table 4.

[5] = tested on: murine fibrosarcomas (RIF-1 cells); test: RIF-1 tumor growth delay, single or multiple colchicine doses in mixed sequence with camptothecin (Example 2B); type: in vivo, C3H mice
Protocol: as §1, §2, §3
In FIG. 5, the arrow indicates a one hour interval separating treatment with each agent. The experimental compositions were prepared as described above. In two treatment groups, colchicine was administered orally in three doses (“colch×3” or “colchicine×3”). When three dosages of colchicine were administered, the first was given one hour after the administration of camptothecin (day 0), the second on day 1 and the third on day 2.

[6] = tested on: murine fibrosarcomas (RIF-1 cells); type: in vivo, C3H mice; remark: listed apart in the source
Protocol: as §1, §2, §3
Paclitaxel was obtained prediluted at 1 mg/ml in a cremaphor/ethanol solution. Colchicine was given at a dose of 2 mg/kg and paclitaxel was given, for each injection, at a dose of 10 mg/kg. For group 4, a total of three paclitaxel injections were given, one each on days 0, 3 and 5. The compositions were injected systemically (i.e., intraperitoneally, i.p.), in a volume of 100 μl.

[7] = tested on: murine fibrosarcomas (RIF-1 cells); type: in vivo, C3H mice; remark: listed apart in the source
Protocol: as §1, §2, §3
Etoposide (Sigma-Aldrich, lot. 46H078) was made to the appropriate concentration in DMSO. Etoposide and colchicine were injected systemically (i.e., intraperitoneally, i.p.), in a volume of 100 μl. The experimental compositions were prepared as described in Table 2.

[8] = vinblastine 1 mg/kg i.p., 3× (days 0, 3, 6)
[9] = vinblastine 1 mg/kg i.p., 4× (days 0, 3, 6, 8)
[10] = paclitaxel 10 mg/kg i.p., 3× (days 0, 3, 5)
[11] = paclitaxel 10 mg/kg i.p., given once
[12] = colchicine 2 mg/kg i.p. (Table 11: 1 mg/kg)
[13] = colchicine 10 mg/kg oral × 3 (days 0, 1, 2)
[14] = colchicine 10 mg/kg oral, single dose

## CN(C)CCN1C(=O)c2cccc3cc(N)cc(c23)C1=O [Amonafide]
[1]; amonafide IP 60 mg/kg
  Days to 4× (ave ± SE): 9.8 ± 0.6 days
  Days to 4× Median: 10.1 days
  Delay: 2.55 days
  T/C: 1.3

## CC[C@]1(O)C[C@@H]2CN(CCc3c([nH]c4ccccc34)[C@@](C(=O)OC)(c3cc4c(cc3OC)N(C)[C@H]3[C@@](O)(C(=O)OC)[C@H](OC(C)=O)[C@]5(CC)C=CCN6CC[C@]43[C@@H]65)C2)C1 [Vinblastine]
[2]; group 7: vinblastine days 0, 3, colchicine day 6, vinblastine day 8
  Tumor growth delay curve when vinblastine was given after colchicine: renewed sensitivity to vinblastine
[2]; vinblastine 1 mg/kg i.p., 1×
  Delay: 0.11 days
  Mean TVQT ± S.E.: 6.6 ± 0.4 days
  Median (TVQT): 6.2 days
  TVQT/CTVQT: 1.0
[2]; [8]
  Mean TVQT ± S.E.: 8.9 ± 0.9 days
  Median (TVQT): 7.8 days
  TVQT/CTVQT: 1.4
[2]; [9]
  Mean TVQT ± S.E.: 8.4 ± .06 days
  Median (TVQT): 8.6 days
  TVQT/CTVQT: 1.2

## N.N.[Cl][Pt][Cl] [Cisplatin, cis-diamminedichloroplatinum II]
[3]; cisplatin 4 mg/kg i.p.
  Delay: 1.45 days
  Median (TGD): 7.7 days
  TGD ± S.E.: 7.4 ± 0.3 days
  TGD/CTGD: 1.2
[1]; CDDP IP 4 mg/kg
  Days to 4× (ave ± SE): 9.44 ± 0.42 days
  Days to 4× Median: 9.22 days
  Delay: 1.66 days
  T/C: 1.2

## CC[C@@]1(O)C(=O)OCc2c1cc1n(c2=O)Cc2cc3ccccc3nc2-1 [Camptothecin, camptothecin]
[4]; camptothecin 6 mg/kg i.p.
  Delay: 3.60 days
  Mean TVQT ± S.E.: 9.4 ± 0.5 days
  Median (TVQT): 9.9 days
  TVQT/CTVQT: 1.5
[5]; CPT 6 mg/kg IP
  Days to 4× (Ave ± SE): 12.9 ± 0.5 days
  Delay: 5.45 days
  Median: 12.8 days
  T/C: 1.7
[1]; camptothecin IP 3 mg/kg
  Days to 4× (ave ± SE): 8.26 ± 0.46 days
  Days to 4× Median: 8.27 days
  Delay: 0.71 days
  T/C: 1.1

## CC(=O)O[C@H]1C(=O)[C@@]2(C)[C@H]([C@H](OC(=O)c3ccccc3)[C@]3(O)C[C@H](OC(=O)[C@H](O)[C@@H](NC(=O)c4ccccc4)c4ccccc4)C(C)=C1C3(C)C)[C@]1(OC(C)=O)CO[C@@H]1C[C@@H]2O [Paclitaxel]
[6]; RIF-1 model, paclitaxel 10 mg/kg i.p.
  Effectiveness of paclitaxel given 3 times versus once: slightly more effective
[6]; [10]
  Delay: 1.59 days
  Mean TVQT ± S.E.: 10.8 ± 1.9 days
  Median (TVQT): 9.0 days
  TVQT/CTVQT: 1.4
[6]; [11]
  Delay: 0.67 days
  Mean TVQT ± S.E.: 9.1 ± 0.7 days
  Median (TVQT): 8.1 days
  TVQT/CTVQT: 1.2

## COc1cc2c(c(OC)c1OC)-c1ccc(OC)c(=O)cc1[C@@H](NC(C)=O)CC2 [Colchicine, (S)-N-(5,6,7,9-tetrahydro-1,2,3,10-tetramethoxy-9-oxobenzo[a]heptalen-7-yl)acetamide]
[4]; both compounds (group 4) versus camptothecin alone or colchicine alone
  Effect of colchicine on the antiproliferative activity of camptothecin: more than additive effect
[4]; colchicine 10 mg/kg oral
  Delay: 0.02 days
  Mean TVQT ± S.E.: 6.4 ± 0.3 days
  Median (TVQT): 6.3 days
  TVQT/CTVQT: 1.0
[6]; [12]
  Delay: 3.34 days
  Mean TVQT ± S.E.: 11.3 ± 0.6 days
  Median (TVQT): 10.8 days
  TVQT/CTVQT: 1.5
[5]; [13]
  Days to 4× (Ave ± SE): 7.2 ± 0.3 days
  Delay: -0.04 days
  Median: 7.3 days
  T/C: 1.0
[5]; colchicine 10 mg/kg oral × 3 versus single dose
  Tumor growth delay, three doses of colchicine compared to a single dose: did not delay tumor growth significantly
[5]; [14]
  Days to 4× (Ave ± SE): 7.7 ± 0.4 days
  Delay: 0.32 days
  Median: 7.6 days
  T/C: 1.0
[2]; colchicine 1 mg/kg i.p.
  Delay: 1.15 days
  Mean TVQT ± S.E.: 7.2 ± 0.5 days
  Median (TVQT): 7.2 days
  TVQT/CTVQT: 1.1
[7]; both compounds (group 4) versus etoposide alone or colchicine alone
  Effect of colchicine on the antiproliferative activity of etoposide: more than additive effect
[7]; colchicine 2 mg/kg i.p.
  Delay: 1.65 days
  Mean TVQT ± S.E.: 9.5 ± 0.2 days
  Median (TVQT): 9.3 days
  TVQT/CTVQT: 1.2
[3]; both compounds (group 4) versus cisplatin alone or colchicine alone
  Effect of colchicine on the antiproliferative activity of cisplatin: more than additive effect
[3]; colchicine 10 mg/kg oral
  Delay: 0.02 days
  Median (TGD): 6.3 days
  TGD ± S.E.: 6.4 ± 0.3 days
  TGD/CTGD: 1.0

## COc1cc([C@@H]2c3cc4c(cc3[C@@H](O[C@@H]3O[C@@H]5CO[C@@H](C)O[C@H]5[C@H](O)[C@H]3O)[C@H]3COC(=O)[C@H]23)OCO4)cc(OC)c1O [Etoposide]
[7]; etoposide 10 mg/kg i.p.
  Delay: -0.17 days
  Mean TVQT ± S.E.: 7.7 ± 0.5 days
  Median (TVQT): 7.5 days
  TVQT/CTVQT: 1.0
